Measurements as given in US20250361230A1, “LATS Inhibitors and Uses Thereof” (The USA, as Represented by the Secretary, Dept. of Heath …, priority 2022, published 2025).

biological target: T1, AKT Kinase-NanoLuc fusion in HEK-293 cells (Homo sapiens, UniProt P31749); test: NanoBRET target engagement assay in transfected HEK-293 cells, AKT; type: cell-based; conditions: Table 28, NanoBRET, HEK-293 cells; read-out: AKT1 (Cellular) IC50
T1 construct: host or cells: HEK-293
Text: The NanoBRET™ assay measures kinase engagement in real time in the context of the intact cell. The assay uses a Kinase-NanoLuc® fusion vector expressing a kinase protein to which a luciferase tag has been added, a cell-permeant fluorescent NanoBRET™ tracer, a NanoLuc® substrate, and an extracellular NanoLuc® inhibitor. Upon expression of the luciferase-tagged kinase, cells will produce a strong BRET signal only in the presence of the NanoBRET™ tracer. The extracellular NanoLuc® inhibitor ensures that the BRET signal observed emanates only from live cells. Because the BRET signal has tight distance constraints, addition of the test compound will decrease the BRET signal if the compound competes with the NanoBRET™ tracer for binding to the kinase domain. Under the appropriate tracer conditions established by the manufacturer, quantitative intracellular affinity and relative potency can then be determined using Mass Action model equations.
HEK-293 cells were purchased from ATCC. FuGENEHD Transfection Reagent, Kinase-NanoLuc® fusion plasmids, Transfection Carrier DNA, NanoBRET™ Tracers and dilution buffer, NanoBRET™ Nano-Glo Substrate, Extracellular NanoLuc® Inhibitor were obtained from Promega.
Assays were conducted following Promega assay protocol with some modifications as described further below. HEK-293 Cells were transiently transfected with Kinase-NanoLuc® Fusion Vector DNA by FuGENE HD Transfection Reagent. Test compounds were delivered into 384 well assay plate by Echo 550 (Labcyte Inc, Sunnyvale, CA). Transfected cells were harvested and mixed with NanoBRET™ Tracer Reagent and dispensed into 384 well plates and incubated at 37° C. in 5% CO2 cell culture incubator for 1 hour. The NanoBRET™ Nano-Glo Substrate plus Extracellular NanoLuc® Inhibitor Solution were added into the wells of the assay plate and incubated for 2-3 minutes at room temperature. The donor emission wavelength (460 nm) and acceptor emission wavelength (600 nm) were measured in the EnVision plate reader. The BRET Ratios were calculated. BRET Ratio=[(Acceptor sample÷Donor sample)−(Acceptor no-tracer control÷Donor no-tracer control)]. The IC50 values of compounds were calculated with Prism GraphPad program.
• 1. Transient Transfection of HEK-293 Cells NanoLuc® Fusion Vector DNA • 1). Cultivate HEK-293 cells (70-80% confluence) appropriately prior to assay. Trypsinize and collect HEK-293 cells. • 2). Prepare lipid: DNA complexes as follows: • a. Prepare a […] solution of DNA in Opti-MEM™ without serum that consists of the following ratios of carrier DNA and DNA encoding NanoLuc® fusion. 9.0 µg/mL of Transfection Carrier DNA, […] of NanoLuc® fusion vector DNA and 1 mL of Opti-MEM™ without phenol red. Mix thoroughly. • b. Add 30 μl of FuGENE HD Transfection Reagent into each milliliter of DNA mixture to form lipid: DNA complex. • c. Mix by inversion 10 times. • d. Incubate at ambient temperature for 20 minutes to allow complexes to form. • 3). In a sterile, conical tube, mix 1 part of lipid: DNA complex with 20 parts of HEK-293 cells in suspension. Mix gently by inversion 5 times. • 4). Dispense cells+lipid: DNA complex into a sterile tissue culture dish and incubate for 22-24 hours. • 2. Addition of Test Compounds (dry plate shooting): Each test compound is delivered from the compound source plate to the wells of 384-well white NBS plate by Echo 550. • 3. Preparation of Cells with NanoBRET™ Tracer Reagent • 1). Remove medium from dish with transfected HEK-293 cells via aspiration, trypsinize and allow cells to dissociate from the dish. • 2). Neutralize trypsin using medium containing serum and centrifuge at 200× g for 5 minutes to pellet the cells. Adjust the cell density to 2×10^5 cells/mL in Opti-MEM™ without phenol red. • 3). Prepare Complete 20× NanoBRET™ Tracer Reagent with Tracer Dilution Buffer. • 4). Dispense one part of Complete 20× NanoBRET™ Tracer Reagent to 20 parts of cells in the tube. Mix gently by inversion 10 times. • 5). […]

T1 sequence (P31749 whole entry, the tested form may be a part): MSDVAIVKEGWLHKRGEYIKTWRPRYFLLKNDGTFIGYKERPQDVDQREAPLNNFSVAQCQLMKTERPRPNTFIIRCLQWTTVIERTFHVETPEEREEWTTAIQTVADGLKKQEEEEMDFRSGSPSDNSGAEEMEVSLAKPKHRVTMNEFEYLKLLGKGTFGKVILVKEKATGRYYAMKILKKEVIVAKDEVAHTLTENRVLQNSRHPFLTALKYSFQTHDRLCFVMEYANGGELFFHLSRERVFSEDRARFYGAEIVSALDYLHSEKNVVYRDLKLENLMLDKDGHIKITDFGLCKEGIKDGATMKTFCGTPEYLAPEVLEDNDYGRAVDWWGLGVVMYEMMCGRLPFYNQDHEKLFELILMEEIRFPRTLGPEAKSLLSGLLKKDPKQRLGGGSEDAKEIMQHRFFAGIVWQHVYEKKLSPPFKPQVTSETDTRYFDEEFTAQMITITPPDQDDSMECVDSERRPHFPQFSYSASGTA

Row | Structure (SMILES) | IC50 [µM]
1 | C[C@@H]1CN(C2CCS(=O)(=O)CC2)C[C@H](C)C1(O)c1c(F)cc(-c2ccnc3[nH]cc(F)c23)cc1F (stereo partly drawn) [Compound 31, 4-((3S,5R)-4-(2,6-difluoro-4-(3-fluoro-1H-pyrrolo[2,3-b]pyridin-4-yl)phenyl)-4-hydroxy-3,5-dimethylpiperidin-1-yl)tetrahydro-2H-thiopyran 1,1-dioxide] | 39.4
2 | NCc1ccc(-c2ccnc3[nH]ccc23)cc1 [Compound 287, (4-(1H-pyrrolo[2,3-b]pyridin-4-yl)phenyl) methanamine] | > 50
3 | C[C@@H]1CN(C2CCC2)C[C@H](C)[C@@]1(O)c1c(F)cc(-c2ccnc3[nH]cc(F)c23)cc1F [Compound 46, (3R,4s,5S)-1-cyclobutyl-4-(2,6-difluoro-4-(3-fluoro-1H-pyrrolo[2,3-b]pyridin-4-yl)phenyl)-3,5-dimethylpiperidin-4-ol] | 31.5
4 | NCc1ccc(-c2ccnc3[nH]ccc23)cc1C(F)(F)F [Compound 284, (4-(1H-pyrrolo[2,3-b]pyridin-4-yl)-2-(trifluoromethyl)phenyl) methanamine] | > 50
5 | NCc1ccc(-c2ccnc3[nH]cc(Cl)c23)cc1 [Compound 276, (4-(3-chloro-1H-pyrrolo[2,3-b]pyridin-4-yl)phenyl) methanamine] | 4.14
6 | Cc1cc(-c2ccnc3[nH]cc(F)c23)ncc1[C@@]1(O)[C@H](C)CN(C2CCS(=O)(=O)CC2)C[C@@H]1C [Compound 51, 4-((3R,4s,5S)-4-(6-(3-fluoro-1H-pyrrolo[2,3-b]pyridin-4-yl)-4-methylpyridin-3-yl)-4-hydroxy-3,5-dimethylpiperidin-1-yl)tetrahydro-2H-thiopyran 1,1-dioxide] | > 30
7 | Cc1cc(-c2ccnc3[nH]cc(F)c23)ccc1CN [Compound 211, (4-(3-fluoro-1H-pyrrolo[2,3-b]pyridin-4-yl)-2-methylphenyl) methanamine] | 22.6
8 | CC1(c2ccc(-c3ccnc4[nH]ccc34)cc2)CCNCC1 [Compound 201, 4-(4-(4-methylpiperidin-4-yl)phenyl)-1H-pyrrolo[2,3-b]pyridine] | 7.51
9 | Fc1c[nH]c2nccc(-c3ccc(C4CCNCC4)c(Cl)c3)c12 [Compound 172, 4-(3-chloro-4-(piperidin-4-yl)phenyl)-3-fluoro-1H-pyrrolo[2,3-b]pyridine] | > 50
10 | OC1(c2ccc(-c3ccnc4[nH]cc(F)c34)cc2)CCNCC1 [Compound 110, 4-(4-(3-fluoro-1H-pyrrolo[2,3-b]pyridin-4-yl)phenyl)piperidin-4-ol] | 13.3
11 | C[C@@H]1CN(Cc2ccccn2)C[C@H](C)[C@@]1(O)c1c(F)cc(-c2ccnc3[nH]cc(F)c23)cc1F [Compound 17, (3S,4s,5R)-4-(2,6-difluoro-4-(3-fluoro-1H-pyrrolo[2,3-b]pyridin-4-yl)phenyl)-3,5-dimethyl-1-(pyridin-2-ylmethyl)piperidin-4-ol] | 24.1
12 | NCc1ccc(-c2ccnc3[nH]cc(-c4ccccc4)c23)cc1 [Compound 253, (4-(3-phenyl-1H-pyrrolo[2,3-b]pyridin-4-yl)phenyl) methanamine] | 0.338
13 | OC1(c2ccc(-c3ccnc4[nH]cc(F)c34)cc2)CC2(CNC2)C1 [Compound 319, 6-(4-(3-fluoro-1H-pyrrolo[2,3-b]pyridin-4-yl)phenyl)-2-azaspiro[3.3]heptan-6-ol] | 44.8
14 | Cc1cc(-c2ccnc3[nH]cc(F)c23)cc(F)c1C1(O)[C@H](C)CN(C2COC2)C[C@@H]1C (stereo partly drawn) [Compound 30, (3S,5R)-4-(2-fluoro-4-(3-fluoro-1H-pyrrolo[2,3-b]pyridin-4-yl)-6-methylphenyl)-3,5-dimethyl-1-(oxetan-3-yl)piperidin-4-ol] | > 30
15 | C[C@@H]1CNC[C@H](C)[C@@]1(O)c1ccc(-c2ccnc3[nH]cc(F)c23)nc1 [Compound 8, (3S,4s,5R)-4-(6-(3-fluoro-1H-pyrrolo[2,3-b]pyridin-4-yl)pyridin-3-yl)-3,5-dimethylpiperidin-4-ol] | 8.64
16 | OC1(c2ccc(-c3ccnc4[nH]ccc34)cc2)CCNCC1 [Compound 111, 4-(4-(1H-pyrrolo[2,3-b]pyridin-4-yl)phenyl)piperidin-4-ol] | > 50
17 | NCc1ccc(-c2ccnc3[nH]cc(-c4ccccc4)c23)cc1-c1ccccc1 [Compound 219, (5-(3-phenyl-1H-pyrrolo[2,3-b]pyridin-4-yl)-[1,1′-biphenyl]-2-yl)methanamine] | > 50
18 | C[C@@H]1CN(C2CCNCC2)C[C@H](C)[C@@]1(O)c1c(F)cc(-c2ccnc3[nH]cc(F)c23)cc1F [Compound 90, (3R,4s,5S)-4-(2,6-difluoro-4-(3-fluoro-1H-pyrrolo[2,3-b]pyridin-4-yl)phenyl)-3,5-dimethyl-[1,4′-bipiperidin]-4-ol] | 32.3
19 | Cc1cc(-c2ccnc3[nH]cc(F)c23)ccc1[C@@]1(O)[C@H](C)CN(C(=O)CN)C[C@@H]1C [Compound 60, 2-amino-1-((3R,4s,5S)-4-(4-(3-fluoro-1H-pyrrolo[2,3-b]pyridin-4-yl)-2-methylphenyl)-4-hydroxy-3,5-dimethylpiperidin-1-yl)ethan-1-one] | 9.35

same assay, conditions: Table 32, NanoBRET, HEK-293 cells; read-out: AKT (Cellular) IC50

Row | Structure (SMILES) | IC50 [µM]
20 | NCC(O)(c1ccc(Cl)cc1)c1ccc(-c2ccnc3[nH]cc(Br)c23)cc1 (stereo not shown) [Compound 1005, 2-amino-1-(4-(3-bromo-1H-pyrrolo[2,3-b]pyridin-4-yl)phenyl)-1-(4-chlorophenyl)ethan-1-ol] | 0.0029

same assay, conditions: cellular; read-out: AKT (Cellular) IC50

Row | Structure (SMILES) | IC50 [µM]
21 | Cc1cc(-c2ccnc3[nH]cc(C#N)c23)cc(F)c1[C@@]1(O)[C@H](C)CN(C2CCS(=O)(=O)CC2)C[C@@H]1C [Compound 2002, 4-(4-((3S,4s,5R)-1-(1,1-dioxidotetrahydro-2H-thiopyran-4-yl)-4-hydroxy-3,5-dimethylpiperidin-4-yl)-3-fluoro-5-methylphenyl)-1H-pyrrolo[2,3-b]pyridine-3-carbonitrile] | 57.9
22 | Cc1cc(-c2ccnc3[nH]cc(C#N)c23)cc(F)c1[C@@]1(O)[C@H](C)CN(C(=O)[C@@H](C)N)C[C@@H]1C [Compound 2015, 4-(4-((3S,4S,5R)-1-(D-alanyl)-4-hydroxy-3,5-dimethylpiperidin-4-yl)-3-fluoro-5-methylphenyl)-1H-pyrrolo[2,3-b]pyridine-3-carbonitrile] | > 50
23 | Cc1cc(-c2ccnc3[nH]cc(C#N)c23)cc(F)c1[C@@]1(O)[C@H](C)CN(C(=O)CNCC(F)(F)F)C[C@@H]1C [Compound 2014, 4-(3-fluoro-4-((3S,4s,5R)-4-hydroxy-3,5-dimethyl-1-((2,2,2-trifluoroethyl)glycyl)piperidin-4-yl)-5-methylphenyl)-1H-pyrrolo[2,3-b]pyridine-3-carbonitrile] | > 50
24 | Cc1cc(-c2ccnc3[nH]cc(C#N)c23)cc(F)c1[C@@]1(O)[C@H](C)CN(C(=O)[C@](C)(N)CO)C[C@@H]1C [Compound 2008, 4-(4-((3S,4s,5R)-1-(2-amino-3-hydroxy-2-methylpropanoyl)-4-hydroxy-3,5-dimethylpiperidin-4-yl)-3-fluoro-5-methylphenyl)-1H-pyrrolo[2,3-b]pyridine-3-carbonitrile] | > 50
25 | Cc1cc(-c2ccnc3[nH]cc(C#N)c23)cc(F)c1[C@@]1(O)[C@H](C)CN(C(=O)[C@H](N)CO)C[C@@H]1C [Compound 2007, 4-(4-((3S,4S,5R)-1-(D-seryl)-4-hydroxy-3,5-dimethylpiperidin-4-yl)-3-fluoro-5-methylphenyl)-1H-pyrrolo[2,3-b]pyridine-3-carbonitrile] | > 50
